The source of these data is paper PMC7279487, “Dual Target Ligands with 4-tert-Butylphenoxy Scaffold as Histamine H3 Receptor Antagonists and Monoamine Oxidase B Inhibitors” (International Journal of Molecular Sciences, 2020).

One experiment addresses T1, hMAO B (Homo sapiens, UniProt P27338).
T1 construct: purchased Sigma Aldrich M7441
T1 sequence (P27338 1-520): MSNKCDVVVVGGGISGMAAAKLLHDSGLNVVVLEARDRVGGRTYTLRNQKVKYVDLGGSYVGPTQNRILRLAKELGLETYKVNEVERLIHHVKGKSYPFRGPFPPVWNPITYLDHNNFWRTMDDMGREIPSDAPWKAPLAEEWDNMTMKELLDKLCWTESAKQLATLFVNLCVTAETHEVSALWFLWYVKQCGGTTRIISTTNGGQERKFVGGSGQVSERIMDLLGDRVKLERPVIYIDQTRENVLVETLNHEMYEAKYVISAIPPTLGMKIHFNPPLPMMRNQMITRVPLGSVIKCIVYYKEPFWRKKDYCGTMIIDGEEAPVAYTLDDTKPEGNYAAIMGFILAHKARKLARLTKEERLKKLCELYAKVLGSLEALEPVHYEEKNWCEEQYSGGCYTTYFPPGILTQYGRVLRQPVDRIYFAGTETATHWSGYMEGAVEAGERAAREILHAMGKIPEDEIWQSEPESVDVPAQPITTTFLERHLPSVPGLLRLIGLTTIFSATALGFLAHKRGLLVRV
The experiment in a line: hMAO B kinetic studies (Michaelis-Menten, Lineweaver-Burk). In kind it is biochemical. On the procedure:
Results from the kinetic experiment were used for determination of Michaelis–Menten curves (Figure 4A,C). […] From Michaelis–Menten curves, Vmax and KM values were fitted (Table 2). For both compounds, Vmax values decreased curvilinearly and KM values increased curvilinearly with the increased inhibitor concentrations.
The mode of the inhibition was tested according to the standard procedure described in Reversibility Studies using different concentrations of the substrate. […] Substrate was used in six concentrations: […], 0.1 mM, 0.5 mM, 1 mM, 1.5 mM, and 2 mM. After the experiment, velocities were calculated and put on the graph (y-axis) against the concentration of the substrate (x-axis). From the Michaelis–Menten plot Vmax, KM, and α values were calculated for different concentrations of the inhibitor. Double-reciprocal plot (Lineweaver–Burk plot) were prepared to display the data.
The α values for different modes of reversible inhibition as well as their diagnostic signature on […]
The α value for compound 9 was calculated by GraphPad Prism software from the nonlinear regression curves using following equation for mixed- […]
v = Vmax*[S] / [S]*(1+ [I]/ αKi) + KM*(1+ [I]/Ki) (1) v – velocity of enzyme reaction. Vmax - maximum velocity (at infinite substrate concentration); Ki – dissociation constant for Enzyme-Inhibitor complex (in the enzymology literature other symbols can be used such as: Ki, Kii , KEI etc.); αKi – dissociation constant for Enzyme-Substrate-Inhibitor complex (in the literature also under the symbols: Ki’, Kis and KES); KM – Michaelis-Menten constant; [I]– concentration of the inhibitor; [S] – concentration of the substrate [Ref S1].
Table S1. Relation between inhibition modality, α value, and diagnostic signature on the double-reciprocal plots (i.e Lineweaver-Burk plot) [S2].
α Inhibition modality Diagnostic signature on […]
α = 1 (inhibitor binds to free enzyme lines converge at the x-axis and enzyme-substrate complex
(inhibitor can bind to free lines converge to the left of the α > 1 enzyme and enzyme-substrate y-axis and above the x-axis complex unequally), inhibitor’s affinity is higher for free enzyme
(inhibitor can bind to free
α < 1 enzyme and enzyme-substrate lines converge to the left of the complex unequally), inhibitor’s y-axis and below the x-axis affinity is higher for the enzyme- […]
α → ∞ (inhibitor and substrate compete lines converge at the y-axis for the same site of binding) […]
α → 0 and α > 0 (inhibitor binds only to the parallel lines

In experiment [1] the test system is haloperidol-induced catalepsy. As to the kind of experiment: haloperidol-induced catalepsy, crossed-leg position test. It counts as in vivo, Wistar rats. The conditions noted are these: for Times of Observation of Catalepsy (s), 0 min / Times of Observation of Catalepsy (s), 3 min / Times of Observation of Catalepsy (s), 6 min: mean ± SEM (n = 6). Here is the method:
Haloperidol (dopamine D2 antagonist)-induced catalepsy in rodents is a popular model for screening of antiparkinsonian activity of compounds [21]. Caused symptoms in animals are similar to the inability of PD patients to initiate movements. […] The reversal of catalepsy was tested for 6 min (3 times in 3 min intervals) after 1 h of haloperidol administration. As the reference compound was used MSX-3, the adenosine A2A receptor antagonist with confirmed ability to reverse catalepsy mediated by D1 and D2 receptor antagonists.
The experiments were carried out on male rats Wistar (180–220 g). Animals were housed in plastic cages in room at a constant temperature of 20 ± 2 °C with natural light–dark cycles. The animals had free access to standard pellet diet and water and were used after a minimum of 3 days of acclimatization to the housing conditions. Control and experimental groups consisted of 6 animals each. All experimental procedures were performed according to the European Union Directive of 22 September 2010 (2010/63/EU) and Polish legislation concerning animal care and use and was approved by the Local Ethics Committee for Experiments on Animals in Kraków, Poland (Resolution No. 70/2014, approval date: 20 May 2014). The examined compound was administered as the suspension in 0.5% methylcellulose in constant volume of 10 mL/kg.
Antiparkinsonian activity in catalepsy tests was performed as described in [28]. Haloperidol was administered s.c. at a dose of 0.63 mg/kg, which in 100% of control animals caused catalepsy. Tested compounds were administered i.p. at the doses 50 and 25 mg/kg body weight, 5 min after haloperidol injection. After 60 min from the injection of haloperidol, to assess the occurrence of catalepsy, the animals were placed in a forced position and the time they remained in this position was measured. Two tests were performed to determine the antiparkinsonian activity: crossed leg position test and bar test. In the first test, the animals were put on the hind paws behind the front (forced position); in the second, the animals were supported on a wooden block (the front paws were placed on a block suspended 10 cm above the ground). Then, the time that the animals remain is measured in a forced position (time was measured to a maximum of 60 s). Observation was carried out 3 times in 3-min intervals. The shortening of the time of catalepsy to the control group was adopted for the antiparkinsonian activity.

For the molecule `CC(C)(C)c1ccc(OCCCN2CCCCC2)cc1` [DL76, 1-(3-(4-tert-butylphenoxy)propyl)piperidine], the “constant α” value on hMAO B (calculated by GraphPad Prism from nonlinear regression, mixed-model inhibition) is given as 4.6. Besides, the “mode of hMAO B inhibition” value on hMAO B (from Vmax and KM behaviour and Lineweaver-Burk plot) was “mixed mode inhibition”. For the same molecule, the “Vmax (RFU/min)” value at hMAO B (inhibitor concentration 7 nM) amounted to 1628 RFU/min; at hMAO B (inhibitor concentration 48 nM), 1165 RFU/min; on hMAO B (inhibitor concentration 164 nM) it was 726.3 RFU/min. In addition, the “duration of catalepsy (versus control 19.25)” value in experiment [1] (25 mg/kg body weight) was found to be 8.75; in experiment [1] (50 mg/kg body weight), 0.053. The “reduction of the duration of catalepsy compared to the control group” value in experiment [1] (25 mg/kg body weight, not statistically significant) is given as 54.5%; in experiment [1] (50 mg/kg body weight, statistically significant), 99.7%. Moreover, the results for the “Times of Observation of Catalepsy (s), 0 min” value in experiment [1] (25 mg/kg) and in experiment [1] (50 mg/kg) were 0.66 ± 0.68 s and 0 ± 0 s, respectively. The “Times of Observation of Catalepsy (s), 3 min” value came to 10.6 ± 6.1 s in experiment [1] (25 mg/kg) and 0 ± 0 s in experiment [1] (50 mg/kg). Besides, the entries for the “Times of Observation of Catalepsy (s), 6 min” value in experiment [1] (25 mg/kg) and in experiment [1] (50 mg/kg) were 15.0 ± 6.7 s and 0.16 ± 0.4 s, respectively.
